Numbers after ± are expanded uncertainties.

The text below walks through data of the NIST ThermoML archive (doi:10.1021/je0503554).

The data set is described as follows: activity coefficient (dimensionless); of the first substance listed, at infinite dilution; xn = mol fraction of the nth substance listed. The note with it: Liquid, Chromatography, x1 = 0.

As to `CCCCCCO` [hexan-1-ol] + CCCCCC[n+]1ccn(C)c1.O=S(=O)([N-]S(=O)(=O)C(F)(F)F)C(F)(F)F, the activity coefficient reads like this: (354.05 K) 2.18 ± 0.15; (364.55 K) 1.97 ± 0.13; (374.95 K) 1.82 ± 0.12; (385.45 K) 1.67 ± 0.11; (395.95 K) 1.56 ± 0.1.
In the case of `CCCCCc1ccccc1` [pentylbenzene] + CCCCCC[n+]1ccn(C)c1.O=S(=O)([N-]S(=O)(=O)C(F)(F)F)C(F)(F)F, the activity coefficient was found to be 3.38 ± 0.23 (364.65 K), 3.37 ± 0.23 (375.15 K) and 3.37 ± 0.23 (385.65 K).
For the compound `CCCCc1ccccc1` [butylbenzene] + CCCCCC[n+]1ccn(C)c1.O=S(=O)([N-]S(=O)(=O)C(F)(F)F)C(F)(F)F, the activity coefficient came out at 2.72 ± 0.19 (354.25 K), 2.69 ± 0.18 (364.65 K), 2.66 ± 0.18 (375.15 K) and 2.62 ± 0.18 (385.65 K).
For the compound `CCCCCO` [pentan-1-ol] + CCCCCC[n+]1ccn(C)c1.O=S(=O)([N-]S(=O)(=O)C(F)(F)F)C(F)(F)F, the activity coefficient amounted to 2.18 ± 0.15 (333.25 K); 2 ± 0.14 (343.75 K); 1.8 ± 0.12 (354.05 K); 1.63 ± 0.11 (364.55 K); 1.51 ± 0.1 (374.95 K).
For `C=CCCCCCCC` [1-nonene] + CCCCCC[n+]1ccn(C)c1.O=S(=O)([N-]S(=O)(=O)C(F)(F)F)C(F)(F)F, the activity coefficient is 12.5 ± 0.85 (312.25 K); 11.8 ± 0.81 (322.75 K); 11.2 ± 0.76 (333.15 K); 11.1 ± 0.75 (333.35 K); 10.5 ± 0.71 (343.75 K); 9.99 ± 0.68 (354.15 K). For the same compound, the activity coefficient (364.55 K) was determined as 9.54 ± 0.65.
Regarding `C1CCCCC1` [cyclohexane] + CCCCCC[n+]1ccn(C)c1.O=S(=O)([N-]S(=O)(=O)C(F)(F)F)C(F)(F)F, the activity coefficient is, setting by setting: (300.95 K) 5.65 ± 0.39; (312.25 K) 5.23 ± 0.36; (322.85 K) 4.9 ± 0.33; (333.25 K) 4.59 ± 0.31.
As for `C1COCCO1` [1,4-dioxane] + CCCCCC[n+]1ccn(C)c1.O=S(=O)([N-]S(=O)(=O)C(F)(F)F)C(F)(F)F, the activity coefficient was 0.04 (375.15 K) and 0.047 (396.15 K).
